Experiments:
[1] = Example 1 PK sub-study, plasma iloprost by LC-MS; format: in vivo, human; details: for CLss, Mean (SD): n 1
Description: Eligible subjects were given the option to participate in a PK sub-study. Subjects who participated in the sub-study provided plasma samples for PK analysis. The samples were analyzed for iloprost concentrations using validated liquid chromatography mass spectrometry methods.
The following PK parameters were calculated whenever possible, based on the plasma concentrations of iloprost: • Steady state plasma concentration just before infusion was stopped • Area under the plasma concentration versus time curve (AUC) from time of dosing to the last time point with measurable concentration (AUC0-last) • AUC from time 0 extrapolated to infinity (AUC0-inf) • Percentage of AUC obtained by extrapolation (AUCextrape %) • Terminal elimination constant (λz) • Plasma terminal elimination half-life (t½) • Plasma clearance (CL), calculated as dose/AUC0-inf • Volume of distribution (V), calculated as dose/(λz×AUC0-inf) Safety

[2] = system: subjects with symptomatic Raynaud's Phenomenon (RP) secondary to Systemic Sclerosis (SSc); assay: Example 1 double-blind placebo-controlled study, ePRO diary efficacy on symptomatic RP attacks; format: in vivo, human; details: for Weekly Frequency of Symptomatic RP Attacks, Treatment comparison of change vs placebo, LS mean difference in change: ANCOVA, N = 17 per group, p 0.8498
From the text: This was a multicenter, double-blind, randomized, placebo-controlled study to provide an initial evaluation of the effect of iloprost on the symptomatic relief of RP attacks in subjects with SSc. As a pilot study, it was not powered to provide a definitive estimate of the effect of iloprost. Importantly, this study tested the feasibility of collecting the study endpoints and logistics of study operations that included, among other things, an electronic patient-reported outcomes (ePRO) diary for the evaluation of subject response to the treatment, as well as the infusion workflow for this multiday treatment. Subjects were allowed to continue receiving stable standard of care therapies for the management of symptomatic RP (e.g., calcium channel blockers, angiotensin-converting enzyme inhibitors, statins, fluoxetine, and low-dose acetylsalicylic acid) or may have participated without the use of background standard of care therapies.
The primary objective was to evaluate the efficacy of iloprost compared to placebo on the change in the weekly frequency of symptomatic Raynaud's Phenomenon (RP) attacks from baseline in subjects with symptomatic RP secondary to Systemic Sclerosis (SSc). The exploratory objectives were the following: • To evaluate the efficacy of iloprost compared to placebo on the severity of RP attack symptoms • To evaluate the efficacy of iloprost compared to placebo on the Raynaud's Condition Score • To evaluate the efficacy of iloprost compared to placebo on hand function as assessed by the Cochin Hand Function Scale (CHFS) • To evaluate the safety and tolerability of iloprost • To evaluate the efficacy of iloprost compared to placebo on symptomatic RP attack duration • To evaluate the efficacy of iloprost compared to placebo on the worst pain associated with symptomatic RP • To evaluate the efficacy of iloprost compared to placebo on the subject assessment of overall improvement in symptomatic RP • To evaluate the pharmacokinetics (PK) of iloprost in subjects with symptomatic RP secondary to SSc
The study consisted of an up to 30-day screening period during which subjects completed a daily ePRO diary to record information regarding all symptomatic RP attacks (e.g., severity of symptoms, duration, and hand function). […] The baseline ePRO diary completion period may have been extended beyond 10 days in order to accommodate the preferred Monday through Friday dosing schedule. The ePRO symptomatic RP attack data from this time period were used for the calculation of the baseline frequency of symptomatic RP attacks.
Subjects were randomized in a 1:1 ratio to iloprost injection for IV use or placebo. Randomization was stratified based on the use of phosphodiesterase inhibitors at screening. Study drug administration began on Day 1, and subjects received study drug for 5 consecutive days (e.g., Monday through Friday) as an IV infusion over 6 hours each day via a peripheral line (NovaCath™ Integrated IV Catheter System) or a peripherally inserted central catheter using an infusion pump.
On Day 1, study drug was initiated at a starting dose of 0.5 ng/kg/min, and dose increases occurred every 30 minutes (+5 minutes) in increments of 0.5 ng/kg/min up to 2.0 ng/kg/min or the individual tolerated dose. If dose-limiting adverse events (e.g., headache, flushing, jaw pain, myalgia, nausea, or vomiting) occurred that could not be tolerated by the subject, or if the subject experienced symptomatic hypotension, then the dose was reduced in a step-wise manner by 0.5 ng/kg/min every 30 minutes (+5 minutes) until a tolerated dose was determined or the infusion was stopped until the symptoms resolved at which point the study drug was reinitiated at a previously tolerated dose. If symptomatic hypotension or a dose-limiting adverse event occurred during administration of iloprost at the starting dose (i.e., 0.5 ng/kg/min), the infusion was reduced to 0.25 ng/kg/min. […]

CC#CCC(C)[C@H](O)/C=C/[C@@H]1[C@H]2C/C(=C/CCCC(=O)O)C[C@H]2C[C@H]1O (stereo partly drawn) [Iloprost, (5E)-5-[(3aS,4R,5R,6aS)-5-hydroxy-4-[(E,3S)-3-hydroxy-4-methyloct-1-en-6-ynyl]-3,3a,4,5,6,6a-hexahydro-1H-pentalen-2-ylidene]pentanoic acid]
CLss, Mean (SD) ([1]; Maximum Tolerated Dose Level 1.00 ng/kg/min): 91.22 (NA) L/h | CLss, Mean (SD) ([1]; Maximum Tolerated Dose Level 1.50 ng/kg/min): 6.01 (NA) L/h | Css, Geometric mean (geometric CV %) ([1]; Maximum Tolerated Dose Level 1.50 ng/kg/min, n 2): 32.90 (284.8) pg/mL | CLss, Mean (SD) ([1]; Maximum Tolerated Dose Level 2.00 ng/kg/min): 64.53 (NA) L/h | Average Overall Severity of Symptomatic RP Attacks, Baseline, Mean ([2]; 11-point NRS (0 to 10), before treatment, N = 17): 5.30 | Average Overall Severity of Symptomatic RP Attacks, Treatment comparison of change vs placebo, LS mean difference in change ([2]; 11-point NRS, p 0.4409): −0.47 | Weekly Frequency of Symptomatic RP Attacks, Treatment comparison of change vs placebo, LS mean difference in change [2]: −0.77 | Weekly Frequency of Symptomatic RP Attacks, Treatment comparison of change vs placebo, LS mean difference in change ([2]; listed as iloprost): not statistically significant | Exploratory endpoints (overall severity, Raynaud's Condition Score, weekly duration, worst symptoms, PGI-S and PGI-C): differences in the iloprost group compared to placebo ([2]; baseline to double-blind endpoint): not statistically significant | Weekly Frequency of Symptomatic RP Attacks, Treatment comparison of change vs placebo, LS mean difference in change (treatment effect) ([2]; subgroup Randomization Date After 3 Jun. 2019, p 0.7116): 2.04
